Laboratory results reported in ChEMBL document CHEMBL3352190, “New benzothieno[3,2-d]-1,2,3-triazines with antiproliferative activity: synthesis, spectroscopic studies, and biological activity” (2014).
Calls of active or inactive are those of the source. No cut-off for these calls is given here.

Columns and labels:
HeLa [1] = assay: Cytotoxicity against human HeLa cells assessed as reduction in cell viability after 48 hrs by MTT assay; type: functional
Calf thymus DNA [2] = assay: Binding affinity to calf thymus DNA assessed by UV-vis spectroscopy; type: nucleic-acid assay; conditions: Bos taurus
Calf thymus DNA [3] = assay: Binding affinity to calf thymus DNA assessed as change in CD spectrum of DNA by CD titration method; type: nucleic-acid assay; conditions: Bos taurus
HeLa [4] = assay: Cytotoxicity against human HeLa cells assessed as reduction in cell viability after 24 hrs by MTT assay; type: functional
Calf thymus DNA [5] = assay: Binding affinity to calf thymus DNA assessed as DNA intercalation by viscosity study; type: nucleic-acid assay; conditions: Bos taurus
Calf thymus DNA [6] = assay: Binding affinity to calf thymus DNA assessed as hypochromic effect by UV-vis spectroscopy; type: nucleic-acid assay; design: concentration or dose not given beside the values; conditions: Bos taurus
HeLa [7] = assay: Cytotoxicity against human HeLa cells assessed as reduction in cell viability by MTT assay; type: functional, cell-based; conditions: TDE = time-dependent effect
HeLa [8] = assay: Cytotoxicity against human HeLa cells assessed as reduction in cell viability after 24 to 48 hrs by MTT assay; type: functional
HeLa [9] = assay: Cell cycle arrest in human HeLa cells at 4.4 uM after 24 hrs by flow cytometry; type: functional, cell-based
HeLa [10] = assay: Cell cycle arrest in human HeLa cells assessed as accumulation of G0/G1 phase after 12 to 24 hrs by flow cytometry; type: functional, cell-based
HeLa [11] = assay: Cell cycle arrest in human HeLa cells assessed as supression of G2/M phase after 12 to 24 hrs by flow cytometry; type: functional, cell-based
HeLa [12] = assay: Cell cycle arrest in human HeLa cells at 8.8 uM after 12 hrs by flow cytometry; type: functional, cell-based
HeLa [13] = assay: Cell cycle arrest in human HeLa cells assessed as accumulation of cells at sub-G1 phase at 8.8 uM after 24 hrs by flow cytometry; type: functional, cell-based
HeLa [14] = assay: Cytotoxicity against human HeLa cells assessed as reduction in plasma membrane integrity at 1 to 50 uM by LDH release assay; type: functional, cell-based

Row | SMILES | Kb (Calf thymus DNA [2]) | Activity (Calf thymus DNA [3]) | Activity (Calf thymus DNA [5]) | Activity (Calf thymus DNA [6]) | GI50 (HeLa [1]) | GI50 (HeLa [4]) | Activity (HeLa [7]) | Activity (HeLa [8]) | Activity (HeLa [9]) | Activity (HeLa [10]) | Activity (HeLa [11]) | Activity (HeLa [12]) | Activity (HeLa [13]) | Activity (HeLa [14]) | GI50 (HeLa [8])
1 | COc1ccc(-n2nnc3c(sc4ccccc43)c2=O)cc1 | 9.72 ×10⁴ /M | Active | Active | 28% | 1.24 µM | 4.37 µM | tde | Dose-dependent effect | Active | Dose-dependent effect | Dose-dependent effect | Active | Active | inactive | –
2 | CCOC(=O)c1sc2ccccc2c1/N=N/Nc1ccc(OC)cc1 | – | – | – | – | 17.4 µM | 49.1 µM | tde | Dose-dependent effect | – | – | – | – | – | – | –
3 | O=c1c2sc3ccccc3c2nnn1-c1ccc(F)c(Cl)c1 | – | – | inactive | – | 2.45 µM | 6.35 µM | tde | Dose-dependent effect | – | – | – | – | – | inactive | –
4 | O=c1c2sc3ccccc3c2nnn1-c1ccccc1 | 6.67 ×10⁵ /M | inactive | Active | 85% | 9.79 µM | 18.6 µM | tde | Dose-dependent effect | – | – | – | – | – | – | –
5 | COc1cc(-n2nnc3c(sc4ccccc43)c2=O)cc(OC)c1OC | 9.84 ×10⁵ /M | inactive | Active | 29% | 9.44 µM | 20.7 µM | tde | Dose-dependent effect | – | – | – | – | – | – | –
6 | Cn1nnc2c(C(N)=O)ncn2c1=O [TEMOZOLOMIDE] | – | – | – | – | – | – | – | – | – | – | – | – | – | – | > 50 µM
7 | CN(C)/N=N/c1[nH]cnc1C(N)=O [DACARBAZINE] | – | – | – | – | – | – | – | – | – | – | – | – | – | – | > 50 µM
8 | Cc1ccc(-n2nnc3c(sc4ccccc43)c2=O)cc1 | 1.23 ×10⁵ /M | Active | Active | 25% | 1.88 µM | 5.32 µM | tde | Dose-dependent effect | – | – | – | – | – | inactive | –

Now from value to compound, other results behind:

Row | Kb (Calf thymus DNA [2]) | Activity (Calf thymus DNA [3]) | Activity (Calf thymus DNA [5]) | Activity (Calf thymus DNA [6]) | SMILES | GI50 (HeLa [1]) | GI50 (HeLa [4]) | Activity (HeLa [7]) | Activity (HeLa [8]) | Activity (HeLa [9]) | Activity (HeLa [10]) | Activity (HeLa [11]) | Activity (HeLa [12]) | Activity (HeLa [13]) | Activity (HeLa [14]) | GI50 (HeLa [8])
9 | 4.14 ×10⁶ /M | inactive | Active | 11% | CCOC(=O)c1sc2ccccc2c1/N=N/Nc1cc(OC)c(OC)c(OC)c1 | 14.4 µM | 22.8 µM | tde | Dose-dependent effect | – | – | – | – | – | – | –
10 | 9.87 ×10⁵ /M | Active | Active | 12% | CCOC(=O)c1sc2ccccc2c1/N=N/Nc1ccccc1 | 26.1 µM | 49.3 µM | tde | Dose-dependent effect | – | – | – | – | – | – | –
11 | – | – | inactive | – | CCOC(=O)c1sc2ccccc2c1/N=N/Nc1ccc(C)cc1 | 18.3 µM | 42.1 µM | tde | Dose-dependent effect | – | – | – | – | – | – | –
12 | – | – | inactive | – | CCOC(=O)c1sc2ccccc2c1/N=N/Nc1ccc(F)c(Cl)c1 | 12.9 µM | 31.4 µM | tde | Dose-dependent effect | – | – | – | – | – | – | –
